Where “and” joins values, the source holds several entries; their conditions need not be identical. Equal entries are not always repeated. Toxic doses and inconclusive results are not listed.
Tested on: BDF1 mice, Lewis lung carcinoma iv, survival T/C
Test: NCI In Vivo Anticancer Drug Screen. Data for tumor model Lewis Lung Carcinoma (intravenous) in B6D2F1 (BDF1) mice
Settings: endpoint: median survival time, schedule: Q01DX009 (ip), higher = longer survival
Experimental: The antitumor activity of compounds was measured in mice bearing transplantable tumors. Survival or tumor size were measured and the results are expressed as the measurement made in the treated group (T) divided by the measurement made in the vehicle treated control group (C). The tumor model used in this assay is Lewis Lung Carcinoma (intravenous) in B6D2F1 (BDF1) mice

[1] = dose: 12.5 mg/kg/injection, vehicle: saline with Tween-80
[2] = dose: 12.5 mg/kg/injection, vehicle: saline
[3] = dose: 25.0 mg/kg/injection, vehicle: saline
[4] = dose: 50.0 mg/kg/injection, vehicle: saline
[5] = dose: 100.0 mg/kg/injection, vehicle: saline
[6] = dose: 25.0 mg/kg/injection, vehicle: saline with Tween-80
[7] = dose: 50.0 mg/kg/injection, vehicle: saline with Tween-80
[8] = dose: 100.0 mg/kg/injection, vehicle: saline with Tween-80
[9] = dose: 200.0 mg/kg/injection, vehicle: saline with Tween-80
[10] = dose: 400.0 mg/kg/injection, vehicle: saline with Tween-80

OCCN1CCN(CC/C=C2/c3ccccc3Sc3ccc(C(F)(F)F)cc32)CC1 was tested, and the T/C (dose: 1.56 mg/kg/injection, vehicle: saline with Tween-80) was 98 % of control, the T/C (dose: 3.13 mg/kg/injection, vehicle: saline with Tween-80) was 97 % of control and the T/C [1] was 97 % of control.

CCN(CC)CCOC(=O)Cc1cccc2c(=O)cc(-c3ccccc3)oc12 was tested, and the T/C [2] was 109 % of control, the T/C [3] was 105 % of control and the T/C [4] was 105 % of control. For the same compound, the T/C [5] was 101 % of control.

O=c1n(CC2CO2)c(=O)n(CC2CO2)c(=O)n1CC1CO1 (stereo not given) was tested, and the T/C (dose: 6.25 mg/kg/injection, vehicle: suspension in saline) was 105 % of control and 100 % of control, the T/C (dose: 12.5 mg/kg/injection, vehicle: suspension in saline) was 107 % of control and 101 % of control and the T/C (dose: 25.0 mg/kg/injection, vehicle: suspension in saline) was 121 % of control and 101 % of control.

With O=C1c2ccccc2C(=O)c2c(NCCNCCO)ccc(O)c21 the T/C (dose: 2.5 mg/kg/injection, vehicle: suspension in saline) was 92 % of control, the T/C (dose: 5.0 mg/kg/injection, vehicle: suspension in saline) was 88 % of control and the T/C (dose: 10.0 mg/kg/injection, vehicle: suspension in saline) was 88 % of control. For the same compound, the T/C (dose: 20.0 mg/kg/injection, vehicle: suspension in saline) was 97 % of control, the T/C (dose: 40.0 mg/kg/injection, vehicle: suspension in saline) was 103 % of control and the T/C (dose: 80.0 mg/kg/injection, vehicle: suspension in saline) was 102 % of control.

For COc1cc2cc[n+](C)c(Cc3ccccc3)c2cc1OC, the T/C (dose: 3.12 mg/kg/injection, vehicle: saline with Tween-80) was 285 % of control, the T/C (dose: 3.12 mg/kg/injection, vehicle: saline) was 106 % of control and the T/C (dose: 6.25 mg/kg/injection, vehicle: saline with Tween-80) was 91 % of control. For the same compound, the T/C (dose: 6.25 mg/kg/injection, vehicle: saline) was 108 % of control, the T/C [1] was 161 % of control and the T/C [2] was 116 % of control. For the same compound, the T/C [6] was 95 % of control and the T/C [3] was 120 % of control.

CC(C#N)(C#N)N=Nc1ccc(Cl)cc1Cl was tested, and the T/C [1] was 105 % of control, the T/C [6] was 94 % of control and the T/C [7] was 92 % of control. The T/C [8] was 103 % of control, the T/C [9] was 95 % of control and the T/C [10] was 101 % of control.

With N=C(N)c1ccc(/C=C/c2ccc(C(=N)N)cc2O)cc1 the T/C (dose: 3.12 mg/kg/injection, vehicle: water) was 96 % of control, the T/C (dose: 6.25 mg/kg/injection, vehicle: water) was 101 % of control and the T/C (dose: 12.5 mg/kg/injection, vehicle: water) was 101 % of control. The T/C (dose: 25.0 mg/kg/injection, vehicle: water) was 111 % of control and the T/C (dose: 50.0 mg/kg/injection, vehicle: water) was 115 % of control.

O=C(N/N=C\c1cc(Br)cc(Br)c1O)N/N=C/c1cc(Br)cc(Br)c1O was tested, and the T/C [1] was 91 % of control, the T/C [6] was 96 % of control and the T/C [7] was 98 % of control. The T/C [8] was 96 % of control, the T/C [9] was 98 % of control and the T/C [10] was 96 % of control.

c1ccc(CN2CCOC2)cc1 was tested, and the T/C [2] was 96 % of control, the T/C [3] was 107 % of control and the T/C [4] was 116 % of control. For the same compound, the T/C [5] was 99 % of control.

— PubChem BioAssay AID274 (DTP/NCI, 2004)
